Nine compounds from ChEMBL document CHEMBL4725408, “Antibacterial Spiropyrimidinetriones with N-Linked Azole Substituents on a Benzisoxazole Scaffold Targeting DNA Gyrase” (J Med Chem, 2020) can be followed below.

Converted amounts (≈) assume the structure as drawn. Where only a bound is given, the exact number is not on record here.

In general, IC50 refers to the concentration at which inhibition is half-maximal. The term logD denotes lipophilicity at a set pH, counting ionised and neutral species. A higher logD goes with a more lipophilic compound. For orientation: solubility means how much of the substance goes into solution per volume. Read a high solubility as much dissolved substance. The term fraction unbound denotes the share of the substance not bound to proteins or other matrix. What is called NOAEL is the highest tested level that showed no adverse finding.

Data set [1] in a line: Inhibition of recombinant Escherichia coli DNA gyrase AB expressed in Escherichia coli BL21 (DE3) using relaxed pJT519 DNA as substrate preincubated for 20 mins followed by 5'-BODIPY-TMR-TTCTTCTTCT addition and measured after 1 hr by fluorescence anisotropy.
A short description of data set [2]: n-octanol/phosphate buffer partition coefficient, log D of the compound at pH 7.4 measured after 1 hr by UV-LC/MS based shake flask method. The format is physicochemical.
Data set [3] is described as follows: Solubility of the compound by high throughput solubility assay. The data set is classed as physicochemical.
The nature of data set [4]: Protein binding in human plasma assessed as unbound fraction at 10 uM measured after 16 hrs by LC-MS/MS based equilibrium dialysis method. The data set is classed as ADME, cell-free. For orientation: In equilibrium dialysis free small molecules cross a membrane that holds back macromolecules.
Data set [5] relates to Staphylococcus aureus. Nature of the data set: Antibacterial activity against methicillin sensitive Staphylococcus aureus ARC516 by broth microdilution method. The data set is classed as functional. A general note: Broth dilution looks for growth in wells or tubes with falling amounts of substance.
Data set [6] deals with Staphylococcus aureus. Nature of the data set: Antibacterial activity against methicillin sensitive Staphylococcus aureus ARC516 in presence of human serum by broth microdilution method. The data set is classed as functional.
Data set [7] has as its system Staphylococcus aureus. The data set can be described thus: Antibacterial activity against methicillin/quinolone-resistant Staphylococcus aureus ARC517 by broth microdilution method. The format is functional.
For another data set, the system named is Escherichia coli. Nature of the data set: Antibacterial activity against Escherichia coli ARC523 by broth microdilution method. The format is functional.
Another data set concerns Streptococcus pneumoniae. Nature of the data set: Antibacterial activity against Streptococcus pneumoniae ARC548 by broth microdilution method. The data set is classed as functional.
The next data set has as its system Streptococcus pyogenes. The data set can be described thus: Antibacterial activity against Streptococcus pyogenes ARC838 by broth microdilution method. The data set is classed as functional.
Another data set has as its system Haemophilus influenzae. Nature of the data set: Antibacterial activity against Haemophilus influenzae ARC737 by broth microdilution method. The format is functional.
For a further data set, the system named is L5178Y. The data set can be described thus: Genotoxicity in mouse L5178Y cells using DAPI staining by microscopy based micronucleation assay. The format is toxicity, cell-based.

Take `C[C@@H]1CN2c3c(cc4c(-n5ncnc5NCCN(C)C)noc4c3F)CC3(C(=O)NC(=O)NC3=O)[C@H]2[C@H](C)O1`: the IC50 in [1] was 0.15 µM. Besides, the pH-dependent lipophilicity (logD) at 1 h in [2] amounted to 1.4. In addition, in data set [3], the solubility is more than 1000 µM. Besides, the fraction unbound at 16 h, 10 µM in data set [4] came out at 0.53. Moreover, the MIC against Staphylococcus aureus [5] was 0.78 µM (≈ 0.422 µg/mL); with Staphylococcus aureus [6], 0.78 µM; against Staphylococcus aureus [7], 6.2 µM (≈ 3.36 µg/mL); against Escherichia coli, 50 µM (≈ 27.1 µg/mL); with Streptococcus pneumoniae, 0.39 µM (≈ 0.211 µg/mL); against Streptococcus pyogenes, 0.39 µM (≈ 0.211 µg/mL). The compound also showed an MIC against Haemophilus influenzae of 1.6 µM (≈ 0.866 µg/mL). The compound also gave a no observed adverse effect level (NOAEL) with L5178Y of more than 400 µM.

With `Cc1ncn(-c2noc3c(F)c4c(cc23)CC2(C(=O)NC(=O)NC2=O)[C@H]2[C@H](C)O[C@H](C)CN42)n1`, the 50% inhibitory concentration (IC50) in data set [1] worked out at 1 µM. The logD at 1 h in data set [2] is 1.9. Further, the solubility in [3] is 29 µM (≈ 13.6 µg/mL). Besides, in data set [4], the free fraction (fraction unbound) at 16 h, 10 µM stood at 0.053. For the same compound, the MIC with Staphylococcus aureus [5] worked out at 0.2 µM (≈ 0.0939 µg/mL); in the data set on Staphylococcus aureus [6], 0.78 µM; against Staphylococcus aureus [7], 0.78 µM (≈ 0.366 µg/mL); in the data set on Escherichia coli, 100 µM (≈ 46.9 µg/mL); with Streptococcus pneumoniae it was 3.1 µM (≈ 1.46 µg/mL); in the data set on Streptococcus pyogenes, 0.78 µM (≈ 0.366 µg/mL). Further, the MIC with Haemophilus influenzae amounted to 1.6 µM (≈ 0.751 µg/mL).

In the case of `C[C@@H]1CN2c3c(cc4c(-n5ncnc5NCCN5CCOCC5)noc4c3F)CC3(C(=O)NC(=O)NC3=O)[C@H]2[C@H](C)O1`, in [1], the IC50 was determined as 0.31 µM. In data set [2], this compound came in with a logD at 1 h of 2.1. Moreover, in [3], the concentration in solution (solubility) was 150 µM (≈ 87.5 µg/mL). The unbound share (fraction unbound) at 16 h, 10 µM in [4] stood at 0.11. Also, the MIC in the data set with Staphylococcus aureus [5] is less than 0.2 µM; in the data set with Staphylococcus aureus [6], 0.78 µM; in the data set with Staphylococcus aureus [7], 3.5 µM (≈ 2.04 µg/mL); in the data set with Escherichia coli it was 100 µM (≈ 58.4 µg/mL); in the data set with Streptococcus pneumoniae, 0.39 µM (≈ 0.228 µg/mL); against Streptococcus pyogenes it was 0.39 µM (≈ 0.228 µg/mL). The compound further gave an MIC in the data set on Haemophilus influenzae of 1.6 µM (≈ 0.934 µg/mL).

As to `C[C@@H]1CN2c3c(cc4c(-n5ncnc5NCC(=O)N5CC[C@@H](N(C)C)C5)noc4c3F)CC3(C(=O)NC(=O)NC3=O)[C@H]2[C@H](C)O1`, in [1], the half-maximal inhibitory concentration (IC50) came to 0.08 µM. The compound also registered a logD at 1 h in [2] of 1.3. The compound also displayed a solubility in data set [3] of 690 µM (≈ 431 µg/mL). In data set [4], the fraction unbound at 16 h, 10 µM came out at 0.26. In addition, the MIC against Staphylococcus aureus [5] was 0.2 µM (≈ 0.125 µg/mL); with Staphylococcus aureus [6] it was 0.2 µM; in the data set with Staphylococcus aureus [7], 1.6 µM (≈ 0.999 µg/mL); in the data set with Escherichia coli, 25 µM (≈ 15.6 µg/mL); in the data set on Streptococcus pneumoniae, less than 0.2 µM; against Streptococcus pyogenes, 0.39 µM (≈ 0.244 µg/mL). Besides, in the data set with Haemophilus influenzae, the MIC worked out at 1.6 µM (≈ 0.999 µg/mL).

Regarding `C[C@@H]1CN2c3c(cc4c(-n5ncnc5NCC(=O)N5CC[C@H](N(C)C)C5)noc4c3F)CC3(C(=O)NC(=O)NC3=O)[C@H]2[C@H](C)O1`, in data set [1], the concentration for half-maximal inhibition (IC50) was 0.18 µM. Further, in data set [2], the pH-dependent lipophilicity (logD) at 1 h is 1.7. This compound also yielded a solubility in [3] of 880 µM (≈ 550 µg/mL). Moreover, the fraction unbound at 16 h, 10 µM in data set [4] was determined as 0.26. Further, the MIC was 0.2 µM (≈ 0.125 µg/mL) against Staphylococcus aureus [5]; 0.2 µM in the data set on Staphylococcus aureus [6]; 2.2 µM (≈ 1.37 µg/mL) with Staphylococcus aureus [7]; 50 µM (≈ 31.2 µg/mL) in the data set with Escherichia coli; less than 0.2 µM with Streptococcus pneumoniae; 0.39 µM (≈ 0.244 µg/mL) in the data set with Streptococcus pyogenes. In the data set with Haemophilus influenzae, this compound had an MIC of 1.6 µM (≈ 0.999 µg/mL). In the data set with L5178Y, this compound gave an NOAEL of 12 µM.

Take `C[C@@H]1CN2c3c(cc4c(-n5ncnc5[C@H](C)O)noc4c3F)CC3(C(=O)NC(=O)NC3=O)[C@H]2[C@H](C)O1`: the concentration for half-maximal inhibition (IC50) in data set [1] was 0.43 µM. The pH-dependent lipophilicity (logD) at 1 h in data set [2] came to 1.3. Also, the concentration in solution in data set [3] (solubility) came to 960 µM (≈ 479 µg/mL). Further, the fraction unbound at 16 h, 10 µM in data set [4] turned out to be 0.21. Further, the MIC was 0.78 µM (≈ 0.39 µg/mL) with Staphylococcus aureus [5]; 1.6 µM in the data set on Staphylococcus aureus [6]; 1.6 µM (≈ 0.799 µg/mL) in the data set with Staphylococcus aureus [7]; 79 µM (≈ 39.5 µg/mL) against Escherichia coli; 1.6 µM (≈ 0.799 µg/mL) in the data set on Streptococcus pneumoniae; 1.6 µM (≈ 0.799 µg/mL) against Streptococcus pyogenes. Moreover, the MIC in the data set with Haemophilus influenzae is 1.6 µM (≈ 0.799 µg/mL).

In the case of `COCCNc1ncnn1-c1noc2c(F)c3c(cc12)CC1(C(=O)NC(=O)NC1=O)[C@H]1[C@H](C)O[C@H](C)CN31`, in data set [1], the IC50 stood at 0.038 µM. Also, in data set [2], the log distribution coefficient (logD) at 1 h is 2.2. Further, the solubility in [3] amounted to 6 µM (≈ 3.17 µg/mL). For the same compound, in [4], the fraction unbound at 16 h, 10 µM amounted to 0.077. The MIC in the data set with Staphylococcus aureus [5] was 0.039 µM (≈ 0.0206 µg/mL); with Staphylococcus aureus [6] it was less than 0.2 µM; against Staphylococcus aureus [7], 0.098 µM (≈ 0.0518 µg/mL); in the data set with Escherichia coli, 25 µM (≈ 13.2 µg/mL); with Streptococcus pneumoniae, less than 0.2 µM; against Streptococcus pyogenes it was less than 0.2 µM. The compound also showed an MIC with Haemophilus influenzae of 0.39 µM (≈ 0.206 µg/mL).

Turning to `COCCOc1ncnn1-c1noc2c(F)c3c(cc12)CC1(C(=O)NC(=O)NC1=O)[C@H]1[C@H](C)O[C@H](C)CN31`, in [1], the IC50 stood at 0.32 µM. In [2], this compound displayed a logD at 1 h of 1.7. For the same compound, in [3], the concentration in solution (solubility) was 640 µM (≈ 339 µg/mL). In data set [4], the fraction unbound at 16 h, 10 µM is 0.12. Besides, the MIC with Staphylococcus aureus [5] was 0.39 µM (≈ 0.206 µg/mL); in the data set on Staphylococcus aureus [6], 1.6 µM; against Staphylococcus aureus [7], 1.6 µM (≈ 0.847 µg/mL); against Escherichia coli it was 100 µM (≈ 52.9 µg/mL); against Streptococcus pneumoniae it was less than 0.2 µM; with Streptococcus pyogenes, less than 0.2 µM. Besides, in the data set with Haemophilus influenzae, the MIC was found to be 0.39 µM (≈ 0.206 µg/mL).

Take `C[C@@H]1CN2c3c(cc4c(-n5ncnc5[C@@H](C)O)noc4c3F)CC3(C(=O)NC(=O)NC3=O)[C@H]2[C@H](C)O1`: in data set [1], the 50% inhibitory concentration (IC50) turned out to be 0.18 µM. The compound further had a logD at 1 h in [2] of 1.4. This compound also came in with a solubility in [3] of 920 µM (≈ 460 µg/mL). For the same compound, in data set [4], the free fraction (fraction unbound) at 16 h, 10 µM was determined as 0.23. In addition, the MIC was determined as 0.39 µM (≈ 0.195 µg/mL) in the data set with Staphylococcus aureus [5]; 0.78 µM with Staphylococcus aureus [6]; 0.78 µM (≈ 0.39 µg/mL) in the data set with Staphylococcus aureus [7]; 50 µM (≈ 25 µg/mL) against Escherichia coli; 0.78 µM (≈ 0.39 µg/mL) in the data set with Streptococcus pneumoniae; 0.78 µM (≈ 0.39 µg/mL) in the data set on Streptococcus pyogenes. In addition, in the data set with Haemophilus influenzae, the MIC was found to be 0.78 µM (≈ 0.39 µg/mL).
